Here are results for three compounds from PMC4774911, “Biochemical Screening of Five Protein Kinases from Plasmodium falciparum against 14,000 Cell-Active Compounds” (PLoS ONE, 2016).

Structures are written as SMILES. Several values for one entry are separate records, joined by “and”; a condition that tells them apart may be missing. Equal entries are not always repeated.

Usually IC50 stands for the concentration at which inhibition is half-maximal. A low value points to greater potency.

Targets include CDK10 (Homo sapiens, UniProt Q15131); MKNK1 (Homo sapiens, UniProt Q9BUB5); STK3 (Homo sapiens, UniProt Q13188).
Experiment in all cases: biochemical
A further test has as its target T1, IKBKE (Homo sapiens, UniProt Q14164).
T1 sequence (Q14164 1-716): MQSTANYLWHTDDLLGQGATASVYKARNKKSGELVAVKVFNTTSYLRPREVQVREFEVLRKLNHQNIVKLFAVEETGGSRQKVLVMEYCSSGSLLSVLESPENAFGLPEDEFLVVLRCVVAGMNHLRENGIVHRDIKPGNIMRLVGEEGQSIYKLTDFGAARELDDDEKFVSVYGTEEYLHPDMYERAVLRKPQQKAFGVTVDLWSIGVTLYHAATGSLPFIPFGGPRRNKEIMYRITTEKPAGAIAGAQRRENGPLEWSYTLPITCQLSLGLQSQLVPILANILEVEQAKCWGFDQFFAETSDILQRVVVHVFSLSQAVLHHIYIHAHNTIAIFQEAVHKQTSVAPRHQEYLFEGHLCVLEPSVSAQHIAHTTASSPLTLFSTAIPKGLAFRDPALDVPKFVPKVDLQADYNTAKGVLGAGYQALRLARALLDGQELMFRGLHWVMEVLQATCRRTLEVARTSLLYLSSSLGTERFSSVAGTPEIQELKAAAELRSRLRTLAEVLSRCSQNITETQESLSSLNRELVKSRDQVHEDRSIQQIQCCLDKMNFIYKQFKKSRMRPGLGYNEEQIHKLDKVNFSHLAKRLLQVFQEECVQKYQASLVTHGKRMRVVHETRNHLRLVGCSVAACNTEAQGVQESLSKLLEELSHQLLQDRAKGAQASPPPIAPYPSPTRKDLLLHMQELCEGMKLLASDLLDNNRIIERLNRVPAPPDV

Another test has as its target T2, STK4 (Homo sapiens, UniProt Q13043).
T2 sequence (Q13043 1-487): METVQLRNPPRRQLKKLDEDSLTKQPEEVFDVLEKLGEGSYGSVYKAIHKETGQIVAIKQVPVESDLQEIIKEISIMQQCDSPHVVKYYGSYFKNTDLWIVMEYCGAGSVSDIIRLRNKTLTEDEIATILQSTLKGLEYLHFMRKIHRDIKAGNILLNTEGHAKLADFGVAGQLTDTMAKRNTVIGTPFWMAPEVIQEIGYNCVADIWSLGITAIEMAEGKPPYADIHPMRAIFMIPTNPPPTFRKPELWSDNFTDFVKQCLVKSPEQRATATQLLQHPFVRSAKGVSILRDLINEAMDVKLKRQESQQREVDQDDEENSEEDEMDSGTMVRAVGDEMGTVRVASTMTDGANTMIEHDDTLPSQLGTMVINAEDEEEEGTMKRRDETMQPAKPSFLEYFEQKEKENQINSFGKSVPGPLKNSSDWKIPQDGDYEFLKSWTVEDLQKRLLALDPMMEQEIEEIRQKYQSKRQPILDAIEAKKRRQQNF

For the next test, the target named is T3, MAPKAPK5 (Homo sapiens, UniProt Q8IW41).
T3 sequence (Q8IW41 1-473): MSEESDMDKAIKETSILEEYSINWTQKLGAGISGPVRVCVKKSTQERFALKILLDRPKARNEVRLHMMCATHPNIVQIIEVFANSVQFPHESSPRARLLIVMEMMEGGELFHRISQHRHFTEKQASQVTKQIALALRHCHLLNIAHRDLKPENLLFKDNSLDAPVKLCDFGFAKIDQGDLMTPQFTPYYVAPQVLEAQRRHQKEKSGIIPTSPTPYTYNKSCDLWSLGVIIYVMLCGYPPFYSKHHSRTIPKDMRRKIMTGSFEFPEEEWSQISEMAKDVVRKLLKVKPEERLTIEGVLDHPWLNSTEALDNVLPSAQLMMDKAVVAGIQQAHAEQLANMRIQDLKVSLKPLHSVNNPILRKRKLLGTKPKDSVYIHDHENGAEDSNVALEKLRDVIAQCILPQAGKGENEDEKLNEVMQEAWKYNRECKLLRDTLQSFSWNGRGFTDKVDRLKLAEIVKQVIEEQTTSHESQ

The target in another test is T4, TGFBR1 (Homo sapiens, UniProt P36897).
T4 sequence (P36897 1-503): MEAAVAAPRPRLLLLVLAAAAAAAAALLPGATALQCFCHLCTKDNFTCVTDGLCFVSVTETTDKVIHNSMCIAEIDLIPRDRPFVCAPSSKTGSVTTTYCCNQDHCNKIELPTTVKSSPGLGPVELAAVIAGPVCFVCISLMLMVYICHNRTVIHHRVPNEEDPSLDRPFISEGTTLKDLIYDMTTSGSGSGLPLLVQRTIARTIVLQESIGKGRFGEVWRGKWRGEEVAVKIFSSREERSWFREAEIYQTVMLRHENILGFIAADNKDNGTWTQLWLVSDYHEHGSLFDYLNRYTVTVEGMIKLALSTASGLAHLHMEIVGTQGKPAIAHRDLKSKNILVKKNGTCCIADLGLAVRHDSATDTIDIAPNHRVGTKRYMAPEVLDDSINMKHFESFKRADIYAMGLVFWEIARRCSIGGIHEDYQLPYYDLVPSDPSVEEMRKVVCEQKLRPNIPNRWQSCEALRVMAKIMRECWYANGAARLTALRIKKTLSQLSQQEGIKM

Sequence of CDK10 (Q15131 whole entry): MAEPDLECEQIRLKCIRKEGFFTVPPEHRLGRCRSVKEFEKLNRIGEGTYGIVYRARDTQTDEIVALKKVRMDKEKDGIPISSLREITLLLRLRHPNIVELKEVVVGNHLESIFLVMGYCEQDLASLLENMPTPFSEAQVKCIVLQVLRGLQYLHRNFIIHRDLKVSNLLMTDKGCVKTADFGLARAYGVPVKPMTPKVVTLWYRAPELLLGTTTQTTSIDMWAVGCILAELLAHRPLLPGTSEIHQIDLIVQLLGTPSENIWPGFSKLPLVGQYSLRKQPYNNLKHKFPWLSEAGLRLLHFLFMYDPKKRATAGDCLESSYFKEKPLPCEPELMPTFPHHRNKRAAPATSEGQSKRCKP
Sequence of MKNK1 (Q9BUB5 whole entry): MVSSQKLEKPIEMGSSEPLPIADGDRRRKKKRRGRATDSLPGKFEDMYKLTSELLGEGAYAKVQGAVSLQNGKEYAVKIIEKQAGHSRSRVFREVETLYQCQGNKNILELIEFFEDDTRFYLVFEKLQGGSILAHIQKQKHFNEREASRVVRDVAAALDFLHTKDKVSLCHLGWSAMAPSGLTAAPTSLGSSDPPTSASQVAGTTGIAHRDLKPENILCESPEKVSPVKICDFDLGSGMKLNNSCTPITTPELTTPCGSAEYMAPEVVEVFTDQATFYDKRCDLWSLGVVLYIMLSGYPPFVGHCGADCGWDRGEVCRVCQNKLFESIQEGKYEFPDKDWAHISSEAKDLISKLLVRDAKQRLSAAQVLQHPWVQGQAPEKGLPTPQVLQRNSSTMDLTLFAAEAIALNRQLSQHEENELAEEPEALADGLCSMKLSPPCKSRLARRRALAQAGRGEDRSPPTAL
Sequence of STK3 (Q13188 whole entry): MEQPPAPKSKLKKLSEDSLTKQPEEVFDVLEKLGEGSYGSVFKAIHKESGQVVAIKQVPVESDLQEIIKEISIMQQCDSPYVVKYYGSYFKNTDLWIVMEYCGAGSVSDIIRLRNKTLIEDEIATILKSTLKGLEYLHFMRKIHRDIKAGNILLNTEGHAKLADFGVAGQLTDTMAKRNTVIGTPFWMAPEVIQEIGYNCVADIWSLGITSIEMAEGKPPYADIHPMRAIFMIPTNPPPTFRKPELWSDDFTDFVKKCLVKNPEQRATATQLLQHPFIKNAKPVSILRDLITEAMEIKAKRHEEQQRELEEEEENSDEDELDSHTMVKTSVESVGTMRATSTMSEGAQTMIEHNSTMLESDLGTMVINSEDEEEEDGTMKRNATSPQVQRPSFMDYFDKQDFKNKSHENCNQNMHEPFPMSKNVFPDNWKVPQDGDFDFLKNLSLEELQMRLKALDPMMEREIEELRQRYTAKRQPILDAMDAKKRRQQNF

`CN1CCN(c2ccc(Nc3ncc(C#N)c(Nc4ccccc4C(N)=O)n3)cc2)CC1.Cl` [TCMDC-134116]: the IC50 on IKBKE was 1800 nM; on STK4, 190 nM and 220 nM.
As for `Cl.NCC1(c2nc(-c3ccc(Cl)c(O)c3)c(-c3ccncc3)[nH]2)CCCCC1` [TCMDC-141154], the IC50 on CDK10 is above 20000 nM; against MAPKAPK5, above 20000 nM; on MKNK1 it was above 20000 nM; against STK3 it was above 20000 nM; against STK4, above 20000 nM; against TGFBR1, 95 nM and 140 nM.
Turning to `CN(C)CC(O)COc1ccc(Nc2ncc([N+](=O)[O-])c(Nc3ccccc3O)n2)cc1.O=C(O)C(F)(F)F` (centres unmarked) [TCMDC-141399], the IC50 against CDK10 is 1600 nM; at IKBKE it was above 20000 nM; at MAPKAPK5 it was 320 nM; against MKNK1 it was above 20000 nM; on STK3, above 20000 nM; at TGFBR1, above 20000 nM.
